{"source": "paper PMC12190659", "about": "“A Near-Infrared Fluorescent Probe for Specific Imaging of Lymph Node Metastases in Ovarian Cancer via Active Targeting of the Gonadotropin-Releasing Hormone Receptor” (Biomolecules, 2025)", "key": {"[1]": {"test_system": "lymphatic metastases in early-stage ovarian cancer", "parameters": "method as in PMID 38006759", "conditions": "compared with systematic lymphadenectomy; cited from earlier work", "excerpt": "Lymph node metastases are commonly observed in advanced ovarian cancer and are associated with a poor survival rate. Systematic lymphadenectomy seems necessary to achieve complete tumor reduction. […] In a prospectively randomized, controlled trial of lymphadenectomy in patients with primary ovarian cancer (FIGO stage IIB through IV) with macroscopically complete resection and clinically negative lymph nodes (LION trial), systematic pelvic and p ..."}, "[2]": {"test_system": "folate receptor alpha", "conditions": "cited from earlier work", "excerpt": "Real-time guidance provided by intraoperative fluorescence imaging helps improve the resection rate of tumors. Over the past two decades, researchers have attempted to develop tumor-specific fluorophores for intraoperatively detecting ovarian cancer. Pafolacianine (OTL38), a fluorescent tracer that targets folate receptor alpha, is the first FDA-approved agent for fluorescence-guided ovarian cancer surgery. In a phase III study (NCT03180307), additional cancer lesions were identified in 33% of patients with known or suspected ovarian cancer who were scheduled to undergo cytored ..."}, "[3]": {"experiment": "UV-visible absorption and fluorescence emission spectra", "format": "physicochemical", "conditions": "DMSO solution", "description": "The probe GnRHa-PEG-Rh760 was synthesized as shown in the scheme in Figure 1A. The NIR fluorophore Rh760 and its derivatives Rh760-PAZ and Rh760-GA were synthesized as previously reported. All probes were synthesized by Guoping Pharmaceutical (Hefei, China). Briefly, the sequence of the GnRHa peptide (D-2-Nal-D-4-Cl-Phe-D-3-Pal-Ser-Tyr-D-Cit-Leu-Arg-Pro-D-Ala-NH2) was prepared via the standard Fmoc solid-phase peptide synthesis method. After peptide chain coupling, piperidine was added, and the mixture was allowed to react for 20 min to remove Fmoc. Then, Fmoc-PEG2000-COOH and Rh760 were added in sequence and allowed to react until the resin test was colorless. The resin was washed with methanol and then shaken for 2 h with cutting fluid. The resulting reaction mixture was precipitated with ice-cold ether, yielding a blue–green solid. PEG-Rh760 without GnRHa peptide modification was synthesized as the control. The final products were evaluated by mass spectrometry (MS). The UV–visible absorption spectra were measured with a LAMBDA 750 spectrometer (PerkinElmer, Waltham, USA), and the fluorescence emission spectra were measured with a QuantaMaster 40 fluorospectrometer in DMSO solution."}, "[4]": {"test_system": "subcutaneous A2780 (GnRHR-positive) ovarian cancer", "experiment": "In vivo NIR fluorescence imaging, subcutaneous xenograft model", "parameters": "species or system BALB/c nude mice", "conditions": "2.0 mg/kg, tail vein, n = 3", "description": "(§1) Mouse models with subcutaneous xenografts: A total of 5 × 10^6 A2780 cells were subcutaneously injected into the flanks of the mice. The tumors were allowed to grow until their diameter reached approximately 5 mm before treatment.\n(§2) The tumor-bearing mice were injected with GnRHa-PEG-Rh760 at a dose of 2.0 mg/kg body weight (n = 3). PEG-Rh760 was used as a non-targeted control probe. The probes were formulated using phosphate buffered saline (PBS) solutions with a pH of 7.4. For mice with subcutaneous xenografts and lymph node metastasis, the probe was administered via tail vein injection. For mice with peritoneal metastasis, the probe was injected intraperitoneally into the lower right abdominal region. In vivo NIR fluorescence imaging (Ex/Em = 740 nm/790 nm) was performed at different time points post-injection via the IVIS Lumina K Imaging system (PerkinElmer, Waltham, USA). Moreover, tumors, lymph nodes, and major organs were immediately dissected from sacrificed mice and imaged under NIR fluorescence. The fluorescence signals were quantified as the average radiant efficiency ([p/s/cm^2/sr]/[μW/cm^2]) via Living Image software (version 4.5, PerkinElmer, Waltham, USA)."}, "[5]": {"test_system": "subcutaneous A2780 ovarian cancer", "experiment": "Ex vivo fluorescence biodistribution, subcutaneous xenograft model", "format": "in vivo, BALB/c nude mice", "description": "as §1, §2\nFigure S1 Mass spectra of GnRHa-PEG-Rh760 (A) and PEG-Rh760 (B).\nFigure S2 Biodistribution of GnRHa-PEG-Rh760 in mice bearing subcutaneous A2780 ovarian tumors. The mice were injected with GnRHa-PEG-Rh760 via the tail vein and monitored for 120 h. The fluorescence intensities of the ex vivo tumors and organs were measured (n=3). […]"}, "[6]": {"test_system": "peritoneal metastatic A2780-luciferase ovarian cancer", "experiment": "In vivo and ex vivo NIR fluorescence imaging, peritoneal metastasis model", "parameters": "species or system BALB/c nude mice", "conditions": "2.0 mg/kg, intraperitoneal injection, n = 3", "description": "Mouse models with peritoneal metastasis: A total of 1 × 10^7 A2780-luciferase cells were injected into the abdominal cavities of the mice. The tumors were allowed to grow for 2 weeks and monitored via bioluminescence imaging using the IVIS Lumina K Imaging system (PerkinElmer, Waltham, USA).\nas §2, with “For mice with peritoneal metastasis, the probe was injected intraperitoneally into the lower right abdominal region.” left out\nTo verify the specificity of the NIR fluorescence imaging of GnRHa-PEG-Rh760, bioluminescence imaging of A2780-luciferase and ES-2-luciferase tumor-bearing mice was performed via the IVIS Lumina K Imaging system (PerkinElmer, Waltham, USA). […]"}, "[7]": {"test_system": "lymph node metastases of ES-2-luciferase ovarian cancer", "experiment": "In vivo and ex vivo NIR fluorescence imaging, lymph node metastasis model", "parameters": "species or system BALB/c nude mice", "conditions": "2.0 mg/kg, tail vein", "description": "Mouse models with lymph node metastasis: A total of 2 × 10^6 ES-2-luciferase cells were injected into the unilateral footpads of the mice. The lymph node metastases were monitored via bioluminescence imaging. Spontaneous metastases to popliteal (PO) and inguinal (IN) lymph nodes as well as occasional metastases to iliac (IL) and sciatic (SC) lymph nodes were observed after 2–3 weeks of primary tumor growth. The lymph node tissues were confirmed by histological examination and immunohistochemical staining for CK7.\nas §2\nTo verify the specificity of the NIR fluorescence imaging of GnRHa-PEG-Rh760, bioluminescence imaging of A2780-luciferase and ES-2-luciferase tumor-bearing mice was performed via the IVIS Lumina K Imaging system (PerkinElmer, Waltham, USA). The mice were injected with 150 mg/kg body weight D-luciferin (YEASEN Biotech, Shanghai, China) and imaged at 15 min post-injection. Moreover, tumors, lymph nodes, and major organs were immediately dissected from sacrificed mice and imaged. Bioluminescence signals were quantified as the total flux (p/s) via Living Image software (version 4.5, PerkinElmer, Waltham, USA)."}, "[8]": {"target": "T1, GnRHR (Homo sapiens, UniProt P30968)", "T1 construct": "mouse model bearing subcutaneous A2780 (GnRHR-positive) ovarian cancer; endogenous in cells; host or cells: A2780 and ES-2 human ovarian cancer cells grown as xenografts or lymph node metastases in BALB/c nude mice; frozen tissue sections", "T1 sequence (P30968 1-328)": "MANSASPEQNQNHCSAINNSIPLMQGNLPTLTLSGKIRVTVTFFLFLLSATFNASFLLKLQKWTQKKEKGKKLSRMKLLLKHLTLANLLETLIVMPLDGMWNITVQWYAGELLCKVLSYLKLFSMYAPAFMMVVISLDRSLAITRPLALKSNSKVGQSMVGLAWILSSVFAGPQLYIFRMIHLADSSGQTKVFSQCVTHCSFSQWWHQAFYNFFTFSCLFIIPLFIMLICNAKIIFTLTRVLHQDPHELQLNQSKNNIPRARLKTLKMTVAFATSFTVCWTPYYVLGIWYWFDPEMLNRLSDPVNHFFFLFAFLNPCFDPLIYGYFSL", "experiment": "Confocal fluorescence microscopy of frozen tissue sections", "format": "in vivo, BALB/c nude mice", "excerpt": "To examine the binding of probes to ovarian cancer tissues, tumors, lymph nodes and skeletal muscle were obtained from sacrificed mice and then embedded in frozen section embedding medium. The frozen tissues were sectioned, fixed and mounted. Nuclei were labeled with DAPI. Fluorescence images were captured via confocal fluorescence microscopy (TCS SP5, Leica, Wetzlar, Germany)."}, "[9]": {"experiment": "In vivo safety evaluation", "parameters": "species or system mice", "conditions": "2.0 mg/kg, tail vein, n = 3", "description": "The mice were injected with GnRHa-PEG-Rh760 at a dose of 2.0 mg/kg body weight via the tail vein (n = 3). PEG-Rh760 and vehicle were used as controls. The body weights of the mice were continuously monitored. The mice were sacrificed after 6 days. Routine blood tests were conducted to assess red blood cells (RBCs), white blood cells (WBCs), and platelets (PLTs). Blood biochemistry tests were conducted to assess alanine transaminase (ALT), aspartate transaminase (AST), blood urea nitrogen (BUN), and creatinine (CREA) levels. Tissue sections from organs, including the heart, lung, liver, spleen, kidney, and muscle, were stained with hematoxylin and eosin (H&E) for histopathological analysis."}}, "note": "Entries after “also recorded” stand apart in the source; their conditions may differ."}
{"compound": "CC1(C)C(/C=C/C=C/C=C/C=C2\\N(CCCCS(=O)(=O)O)c3ccc4ccccc4c3C2(C)C)=[N+](CCCCS(=O)(=O)[O-])c2ccc3ccccc3c21", "note": "[indocyanine green]", "values": [{"measurement": "detection rate of sentinel lymph node mapping", "setting": "[1]", "result": "low detection rate"}]}
{"compound": "CC1(C)C(/C=C/C2=C(Oc3ccc(C[C@H](NC(=O)c4ccc(NCc5cnc6nc(N)[nH]c(=O)c6n5)cc4)C(=O)[O-])cc3)C(=C/C=C3\\N(CCCCS(=O)(=O)[O-])c4ccc(S(=O)(=O)[O-])cc4C3(C)C)/CCC2)=[N+](CCCCS(=O)(=O)[O-])c2ccc(S(=O)(=O)[O-])cc21.[H+].[H+].[H+].[H+]", "note": "[pafolacianine, Pafolacianine]", "values": [{"measurement": "false-positive lymph nodes", "setting": "[2]; phase I to III studies", "result": "false-positive lymph nodes were also observed"}, {"measurement": "patients in whom additional cancer lesions were identified", "setting": "[2]; phase III study NCT03180307, versus white light assessment and palpation", "result": 33, "unit": "%"}]}
{"compound": "D-2-Nal-D-4-Cl-Phe-D-3-Pal-Ser-Tyr-D-Cit-Leu-Arg-Pro-D-Ala-NH2 [GnRHa-PEG-Rh760, GnRHR-targeted NIR fluorescent probe: GnRH analog peptide conjugated with Rh760 fluorophore and polyethylene glycol (PEG)]", "values": [{"measurement": "maximum absorption peak", "setting": "[3]", "result": 780, "unit": "nm"}, {"measurement": "maximum emission peak", "setting": "[3]", "result": 805, "unit": "nm"}, {"measurement": "NIR fluorescence in subcutaneous tumors", "setting": "[4]; Ex/Em 740/790 nm", "result": "High fluorescence intensity"}, {"measurement": "duration of stronger fluorescence signals in tumors post-injection", "setting": "[4]", "result": "up to 72 h"}, {"measurement": "NIR fluorescence in normal ovarian tissues", "setting": "[5]; ex vivo", "result": "weak NIR fluorescence"}, {"measurement": "biodistribution (organs of accumulation)", "setting": "[5]; ex vivo fluorescence of tumors and organs, 2.0 mg/kg, tail vein, monitored for 120 h, n = 3", "result": "mainly accumulated in the tumor and liver tissues; also recorded: predominant accumulation in the tumor and liver, followed by the kidneys"}, {"measurement": "clearance of the probe", "setting": "[5]; ex vivo fluorescence of tumors and organs, 2.0 mg/kg, tail vein, n = 3", "result": "gradually cleared at 96 h post-injection"}, {"measurement": "tumor-to-background (skeletal muscle) fluorescence ratio", "setting": "[5]; ex vivo, 2.0 mg/kg, tail vein, n = 3", "result": "high ratio of tumor-to-background"}, {"measurement": "NIR fluorescence signals in peritoneal metastases", "setting": "[6]", "result": "high fluorescent signals"}, {"measurement": "NIR fluorescence in metastatic lymph nodes", "setting": "[7]; n = 3", "result": "well identified and detected by NIR fluorescence"}, {"measurement": "NIR fluorescence in normal lymph nodes", "setting": "[7]; n = 3", "result": "no NIR fluorescence signals were detected"}, {"measurement": "average fluorescence intensity in metastatic versus normal lymph nodes", "setting": "[7]; n = 3, p < 0.05", "result": "significantly greater"}, {"measurement": "binding in tumor sections (versus skeletal muscle)", "setting": "[8]; frozen sections from subcutaneous A2780 tumor-bearing mice injected with the probe", "result": "specific binding"}, {"measurement": "binding in metastatic lymph node sections", "setting": "[8]; frozen sections of lymph nodes from ES-2-luciferase model", "result": "specific binding"}, {"measurement": "body weight change versus control group", "setting": "[9]; 6 days", "result": "No significant body weight loss"}, {"measurement": "hematologic analysis: RBC, WBC, PLT, ALT, AST, BUN, CREA levels", "setting": "[9]; after 6 days", "result": "no significant changes"}, {"measurement": "histopathology (H&E) of heart, lung, liver, spleen, kidney, muscle", "setting": "[9]; after 6 days", "result": "No notable tissue injury"}]}
